Results taken from US11564969B2, “Immunorhelin compounds for intracellular infections” (ISR IMMUNE SYSTEM REGULATION HOLDING AB (PUBL), priority 2017, dated 2023).
Where a name gives a salt, the structure may show the parent alone. Read-outs that look alike come from different tables or passages of the source. Square brackets hold non-standard residues; d marks the D form. Peptide text beside a SMILES is read from it. * marks the point of attachment. pGlu = O=C1CC[C@@H](C(=O)O)N1; tBu = CC(C)(C)*

Legend:
[1] = Solubility analysis in PBS (Analysis Method B); type: physicochemical; details: pH 7.4
Protocol: The solubility of compounds of the invention was tested as described in the general methods. Solubility was then graded according to a rating between 1 to 5, where 1 is most soluble and 5 is least soluble.

GnRHR = biological target: T1, GnRHR (Homo sapiens, UniProt P30968)
T1 sequence (P30968 1-328): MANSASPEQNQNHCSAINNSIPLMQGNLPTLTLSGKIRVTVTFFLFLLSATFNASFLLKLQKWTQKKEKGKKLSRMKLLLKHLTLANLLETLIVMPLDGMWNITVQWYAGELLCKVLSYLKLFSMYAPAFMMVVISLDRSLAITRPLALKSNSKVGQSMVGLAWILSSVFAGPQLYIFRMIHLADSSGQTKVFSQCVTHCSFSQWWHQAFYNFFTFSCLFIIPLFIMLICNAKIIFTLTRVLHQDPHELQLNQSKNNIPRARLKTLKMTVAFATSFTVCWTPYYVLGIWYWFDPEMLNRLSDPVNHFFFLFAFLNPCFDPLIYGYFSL

| SMILES | Solubility grading [1] | GNRHR Stimulation at 1 μM (GnRHR; 1000.0) [percentage] | GNRHR Stimulation at 1 μM (GnRHR; 1 μM, calcium assay, CHO-K1 cells) |
| --- | --- | --- | --- |
| CC(C)C[C@H](NC(=O)[C@@H](Cc1c[nH]c2ccccc12)NC(=O)[C@H](Cc1ccc(O)cc1)NC(=O)[C@H](CO)NC(=O)[C@H](Cc1c[nH]c2ccccc12)NC(=O)[C@H](Cc1c[nH]cn1)NC(=O)[C@@H]1CCC(=O)N1)C(=O)N[C@@H](Cc1ccc(O)cc1)C(=O)N1CCC[C@H]1C(=O)NCC(N)=O [Compound 14, pGlu-His-Trp-Ser-Tyr-D-Trp-Leu-Tyr-Pro-Gly-amide] ([pGlu]HWSY[dW]LYPG-NH2) | 4 |  |  |
| CC(C)C[C@H](NC(=O)[C@@H](Cc1c[nH]c2ccccc12)NC(=O)[C@H](Cc1c[nH]cn1)NC(=O)[C@H](CO)NC(=O)[C@H](Cc1c[nH]c2ccccc12)NC(=O)[C@H](Cc1c[nH]cn1)NC(=O)[C@@H]1CCC(=O)N1)C(=O)N[C@@H](Cc1ccc(O)cc1)C(=O)N1CCC[C@H]1C(=O)NCC(N)=O [Compound 16, pGlu-His-Trp-Ser-His-D-Trp-Leu-Tyr-Pro-Gly-amide] ([pGlu]HWSH[dW]LYPG-NH2) | 2 |  |  |
| N=C(N)NCCC[C@H](NC(=O)[C@H](Cc1c[nH]c2ccccc12)NC(=O)[C@@H](Cc1c[nH]c2ccccc12)NC(=O)[C@H](Cc1c[nH]cn1)NC(=O)[C@H](CO)NC(=O)[C@H](Cc1c[nH]c2ccccc12)NC(=O)[C@H](Cc1c[nH]cn1)NC(=O)[C@@H]1CCC(=O)N1)C(=O)N1CCC[C@H]1C(=O)NCC(N)=O [Compound 20, pGlu-His-Trp-Ser-His-D-Trp-Trp-Arg-Pro-NHEt] | 3 |  |  |
| CC(C)C[C@H](NC(=O)[C@@H](Cc1ccc2ccccc2c1)NC(=O)[C@H](Cc1ccc(O)cc1)NC(=O)[C@H](CO)NC(=O)[C@H](Cc1c[nH]c2ccccc12)NC(=O)[C@H](Cc1c[nH]cn1)NC(=O)[C@@H]1CCC(=O)N1)C(=O)N[C@@H](CCCNC(=N)N)C(=O)N1CCC[C@H]1C(=O)NCC(N)=O [Nafarelin, nafarelin, reference compound] |  |  | 100 (n = 2) percentage |
| CC(C)C[C@H](NC(=O)[C@@H](Cc1ccc2ccccc2c1)NC(=O)[C@H](Cc1ccc(O)cc1)NC(=O)[C@H](CO)NC(=O)[C@H](Cc1c[nH]c2ccccc12)NC(=O)[C@H](Cc1c[nH]cn1)NC(=O)[C@@H]1CCC(=O)N1)C(=O)N[C@@H](CCCNC(=N)N)C(=O)N1CCC[C@H]1C(=O)NCC(N)=O [Naferelin TFA, nafarelin, reference compound] | 1 |  |  |
| CC(C)C[C@H](NC(=O)[C@@H](Cc1ccc2ccccc2c1)NC(=O)[C@H](Cc1ccc(O)cc1)NC(=O)[C@H](CO)NC(=O)[C@H](Cc1c[nH]c2ccccc12)NC(=O)[C@H](Cc1c[nH]cn1)NC(=O)[C@@H]1CCC(=O)N1)C(=O)N[C@@H](CCCNC(=N)N)C(=O)N1CCC[C@H]1C(=O)NCC(N)=O [Naferelin acetate, nafarelin, reference compound] | 2 |  |  |

Second part, led by results:

| Solubility grading [1] | GNRHR Stimulation at 1 μM (GnRHR; 1000.0) [percentage] | SMILES | GNRHR Stimulation at 1 μM (GnRHR; 1 μM, calcium assay, CHO-K1 cells) |
| --- | --- | --- | --- |
| 1 | 88 | CCNC(=O)[C@@H]1CCCN1C(=O)[C@H](CCCNC(=N)N)NC(=O)[C@H](CC(C)C)NC(=O)[C@@H](COC(C)(C)C)NC(=O)[C@H](Cc1c[nH]cn1)NC(=O)[C@H](CO)NC(=O)[C@H](Cc1c[nH]c2ccccc12)NC(=O)[C@H](Cc1c[nH]cn1)NC(=O)[C@@H]1CCC(=O)N1 [Compound 6, pGlu-His-Trp-Ser-His-D-Ser(tBu)-Leu-Arg-Pro-NHEt] ([pGlu]HWSH[dS](tBu)LRP-NHEt) |  |
| 2 | 86 | CCNC(=O)[C@@H]1CCCN1C(=O)[C@H](CCCNC(=N)N)NC(=O)[C@H](Cc1c[nH]c2ccccc12)NC(=O)[C@@H](COC(C)(C)C)NC(=O)[C@H](Cc1ccc(O)cc1)NC(=O)[C@H](CO)NC(=O)[C@H](Cc1c[nH]c2ccccc12)NC(=O)[C@H](Cc1c[nH]cn1)NC(=O)[C@@H]1CCC(=O)N1 [Compound 8, pGlu-His-Trp-Ser-Tyr-D-Ser(tBu)-Trp-Arg-Pro-NHEt] ([pGlu]HWSY[dS](tBu)WRP-NHEt) |  |
| 1 | 78 | CCNC(=O)[C@@H]1CCCN1C(=O)[C@H](Cc1ccc(O)cc1)NC(=O)[C@H](CC(C)C)NC(=O)[C@@H](COC(C)(C)C)NC(=O)[C@H](Cc1ccc(O)cc1)NC(=O)[C@H](CO)NC(=O)[C@H](Cc1c[nH]c2ccccc12)NC(=O)[C@H](Cc1c[nH]cn1)NC(=O)[C@@H]1CCC(=O)N1 [Compound 9, pGlu-His-Trp-Ser-Tyr-D-Ser(tBu)-Leu-Tyr-Pro-NHEt] ([pGlu]HWSY[dS](tBu)LYP-NHEt) |  |
| 1 | 81 | CCNC(=O)[C@@H]1CCCN1C(=O)[C@H](CCCNC(=N)N)NC(=O)[C@H](Cc1c[nH]c2ccccc12)NC(=O)[C@@H](COC(C)(C)C)NC(=O)[C@H](Cc1c[nH]cn1)NC(=O)[C@H](CO)NC(=O)[C@H](Cc1c[nH]c2ccccc12)NC(=O)[C@H](Cc1c[nH]cn1)NC(=O)[C@@H]1CCC(=O)N1 [Compound 10, pGlu-His-Trp-Ser-His-D-Ser(tBu)-Trp-Arg-Pro-NHEt] ([pGlu]HWSH[dS](tBu)WRP-NHEt) |  |
| 1 | 76 | CCNC(=O)[C@@H]1CCCN1C(=O)[C@H](Cc1ccc(O)cc1)NC(=O)[C@H](CC(C)C)NC(=O)[C@@H](COC(C)(C)C)NC(=O)[C@H](Cc1c[nH]cn1)NC(=O)[C@H](CO)NC(=O)[C@H](Cc1c[nH]c2ccccc12)NC(=O)[C@H](Cc1c[nH]cn1)NC(=O)[C@@H]1CCC(=O)N1 [Compound 11, pGlu-His-Trp-Ser-His-D-Ser(tBu)-Leu-Tyr-Pro-NHEt] ([pGlu]HWSH[dS](tBu)LYP-NHEt) |  |
| 2 |  | CCNC(=O)[C@@H]1CCCN1C(=O)[C@H](CCCNC(=N)N)NC(=O)[C@H](CC(C)C)NC(=O)[C@@H](Cc1cn(Cc2ccccc2)cn1)NC(=O)[C@H](Cc1ccc(O)cc1)NC(=O)[C@H](CO)NC(=O)[C@H](Cc1c[nH]c2ccccc12)NC(=O)[C@H](Cc1cnc[nH]1)NC(=O)[C@@H]1CCC(=O)N1 [Histrelin TFA, histrelin, reference compound] |  |
| 4 |  | CCNC(=O)[C@@H]1CCCN1C(=O)[C@H](CCCNC(=N)N)NC(=O)[C@H](CC(C)C)NC(=O)[C@@H](Cc1cn(Cc2ccccc2)cn1)NC(=O)[C@H](Cc1ccc(O)cc1)NC(=O)[C@H](CO)NC(=O)[C@H](Cc1c[nH]c2ccccc12)NC(=O)[C@H](Cc1cnc[nH]1)NC(=O)[C@@H]1CCC(=O)N1 [Histrelin acetate, histrelin, reference compound] |  |
| 1 |  | CCNC(=O)[C@@H]1CCCN1C(=O)[C@H](CCCNC(=N)N)NC(=O)[C@H](CC(C)C)NC(=O)[C@@H](CC(C)C)NC(=O)[C@H](Cc1ccc(O)cc1)NC(=O)[C@H](CO)NC(=O)[C@H](Cc1c[nH]c2ccccc12)NC(=O)[C@H](Cc1c[nH]cn1)NC(=O)[C@@H]1CCC(=O)N1 [Leuprorelin TFA, leuprorelin, reference compound] |  |
| 2 |  | CCNC(=O)[C@@H]1CCCN1C(=O)[C@H](CCCNC(=N)N)NC(=O)[C@H](CC(C)C)NC(=O)[C@@H](CC(C)C)NC(=O)[C@H](Cc1ccc(O)cc1)NC(=O)[C@H](CO)NC(=O)[C@H](Cc1c[nH]c2ccccc12)NC(=O)[C@H](Cc1c[nH]cn1)NC(=O)[C@@H]1CCC(=O)N1 [Leuprorelin acetate, leuprorelin, reference compound] |  |
